Assay results taken from ChEMBL document CHEMBL1130661, “Design and synthesis of SH3 domain binding ligands: modifications of the consensus sequence XPpXP” (Bioorg Med Chem Lett, 1998).

Experiment: Compound was tested for the […] domain binding using BIA core binding assay

| IC50 [µM] | Kd [µM] | Structure (SMILES) |
| --- | --- | --- |
| 46 | – | CC(=O)N1CCC[C@@H]1C(=O)N[C@@H](CCCN=C(N)N)C(=O)N1CCC[C@@H]1C(=O)N[C@@H](CC(C)C)C(=O)N1CCC[C@]12CC[C@H]1SC[C@@H](C(=O)N[C@@H](C)C(=O)N3CCC[C@H]3C(=O)NCC(=O)O)N1C2=O |
| – | 1.6 | CC(C)C[C@H](NC(=O)[C@H](CO)NC(=O)[C@@H](N)C(C)C)C(=O)N[C@@H](C)C(=O)N[C@@H](CCCN=C(N)N)C(=O)N[C@@H](CCCN=C(N)N)C(=O)N1CCC[C@H]1C(=O)N[C@@H](CC(C)C)C(=O)N1CCC[C@H]1C(=O)N1CCC[C@H]1C(=O)N[C@@H](CC(C)C)C(=O)N1CCC[C@H]1C(=O)O |
| 75 | – | CC(=O)N1CCC[C@@H]1C(=O)N[C@@H](CCCN=C(N)N)C(=O)N1CCC[C@@H]1C(=O)N[C@@H](CC(C)C)C(=O)N1CCC[C@@]12CC[C@@H]1SC[C@H](C(=O)N[C@@H](C)C(=O)N3CCC[C@H]3C(=O)NCC(=O)O)N1C2=O |
